These results are taken from patent EP0648759A1, “Antihistaminic compounds, process for their preparation and pharmaceutical compositions containing them” (ERREGIERRE S.p.A., priority 1993, dated 1995).

Assay [1] deals with T1, H₁ receptor (Cavia porcellus, UniProt P31389).
T1 construct: A portion of terminal ileum was excised and immersed in a bath for isolated organ; from tissue; host or cells: guinea pig isolated terminal ileum
The experiment in a line: Binding assay under saturation kinetics conditions (Scatchard). Further details: species or system guinea pig. The following applies: in the presence of TFZ 2 x 10⁻⁷ M. Here is the method: These assays (Scatchard) were carried out under the same incubation conditions and according to the conclusive test method described under paragraph 1a), with the exception that the radioligand concentration was changed according to a range of concentrations comprised between 0.3 and 10 nM, in the presence of a concentration of antagonist TFZ of 2 x 10⁻⁷ M.

The target of assay [2] is T1, H₁ receptor. The experiment in a line: Functional activity on guinea pig isolated ileum, histamine-induced contractions. The format is cell-based. Here is the method:
(§1) The test was essentially meant to characterize the type of activity of the molecules under examination by checking their antagonist activity versus H₁ receptor. To this end, the guinea pig isolated ileum was used for two different tests: a) evaluation of the antagonist activity towards the agonist histamine; b) evaluation of the antagonist activity towards the agonist acetylcholine. Said tests were carried out to check the specificity and selectivity levels of the moleculas under examination.
(§2) Male and female guinea pigs weighing approx. 250 g were used. A portion of terminal ileum was excised and immersed in a bath for isolated organ, in Tyrode solution, at 37°C. The antagonist activity was evaluated by determining the ability of the studied drug to modify the dose-effect curve built with increasing doses of agonist alone. Furthermore, in another series of experiments, increasing doses of the molecules under examination were tested in comparison with a submaximal dose of agonist.
The dose of histamine used was 6.8x10⁻⁸ M. The percentage of inhibition found after adding the tested drug to the bath for isolated organ versus the response obtained from the agonist alone was calculated. Six detections were carried out for each drug concentration. The results, calculated in terms of IC₅₀, corresponded to the drug concentrations responsible for a 50% reduction in the submaximal concentration of the agonist alone.

Assay [3] concerns muscarinic cholinergic receptor. The experiment in a line: Functional activity on guinea pig isolated ileum, acetylcholine-induced contractions. The format is cell-based. Particulars: TFZ 5 x 10⁻⁷ M, dose corresponding to the IC₅₀ effective against histamine. Here is the method:
as §1, §2
With a view to estimating the antagonist specificity level of the molecule TFZ under examination and taking into account the anticholinergic activity often associated with antihistaminic molecules, the capability of TFZ of antagonizing the acetylcholine (ACh) contraction effect on guinea pig isolated ileum was tested. […]

T1 sequence (P31389 whole entry): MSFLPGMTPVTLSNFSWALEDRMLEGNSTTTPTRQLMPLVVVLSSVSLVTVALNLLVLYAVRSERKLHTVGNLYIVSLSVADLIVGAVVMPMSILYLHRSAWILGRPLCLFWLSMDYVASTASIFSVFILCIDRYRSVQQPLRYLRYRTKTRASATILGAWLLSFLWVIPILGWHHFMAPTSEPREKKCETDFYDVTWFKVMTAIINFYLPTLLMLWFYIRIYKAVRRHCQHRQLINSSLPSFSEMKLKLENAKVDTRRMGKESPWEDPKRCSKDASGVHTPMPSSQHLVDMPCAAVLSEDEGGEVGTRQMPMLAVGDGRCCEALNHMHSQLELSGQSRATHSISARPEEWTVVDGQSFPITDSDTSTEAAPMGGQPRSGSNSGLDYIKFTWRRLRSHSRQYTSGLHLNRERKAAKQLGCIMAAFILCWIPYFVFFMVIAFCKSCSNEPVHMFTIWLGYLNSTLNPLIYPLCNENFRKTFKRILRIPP

Regarding `CC(C)(c1ccc(C(O)CCCN2CCC(C(O)(c3ccccc3)c3ccccc3)CC2)cc1)c1nn[nH]n1` (racemic) [TFZ, p-1-hydroxy-4-(4-hydroxydiphenylmethyl-1-piperidinyl)-butyl-2-(1H-tetrazol-5-yl)-isopropyl benzene], the “Bmax (density of the binding sites)” value on H₁ receptor [1] is recorded as “no significant change”. For the same molecule, the “IC₅₀, inhibition of histamine-submaximal contraction” value against H₁ receptor [2] (histamine 6.8 x 10⁻⁸ M, comparison in words, numbers only in Fig. 5) is on record as “completely superimposable to that of MET I”. In addition, the “agonist activity (contraction of the ileum smooth muscles)” value on H₁ receptor [2] (increasing doses added to the bath perfusion liquid, no agonist) was “no agonist activity”. Besides, the “type of antagonist activity towards histamine (Lineweaver-Burk)” value on H₁ receptor [2] (three TFZ concentrations, Fig. 4) is on record as “competitive antagonist activity”. Besides, in assay [3], the “inhibitory activity against acetylcholine (ACh) contraction effect” value is on record as “no inhibitory activity”.
